Entries after “also recorded” stand apart in the source; their conditions may differ.

The subject of data set [1] is MDCKII-hABCG2 cells. Kind of data set: WST-1 cell proliferation assay (cytotoxicity), MDCKII-hABCG2. Conditions: for IC50: WST-1, 48 h, IC50 = 50% reduced cell viability, mean ± SEM, N = 3; for cell viability: MDCKII-hABCG2, highest concentration 50 µM, 48 h. In kind it is cell-based, canine. Here is the method:
(§1) The MDCKII-hABCG2 and MDCKII-WT cells were purchased from Alfred Schinkel (Het Nederlands Kanker Instituut, Amsterdam, The Netherlands) and were cultivated in MEM (minimal essential medium) with Earle’s Salts (2.2 g/L NaHCO3, stable glutamine; Biowest, Nuaillé, France) supplemented with 10% (v/v) fetal calf serum (Life Technology, Karlsruhe, Germany), 1% (v/v) non-essential amino acids (Biowest, Nuaillé, France), 100 U/mL penicillin, and 100 µg/mL streptomycin (Biowest, Nuaillé, France). The cells were grown in a humidified atmosphere (37 °C, 5% CO2) and were sub-cultured every 3 to 4 days using 0.05% trypsin/0.02% EDTA (Biowest, Nuaillé, France), up to a total of 14 passages.
(§2) MDCKII-hABCG2 cells and their parental MDCKII-WT cells were seeded in 96-well plates (TPP, Trasadingen, Switzerland) in a density of 2 × 10^4 cells/mL and 3 × 10^4 cells/mL, respectively. After 48 h, the cells were incubated with increasing concentrations of up to 50 µM of the novel synthesized compounds, with 0.1% Triton X-100 as the positive control and solvent (0.1% DMSO) as the negative control for 48 h. Afterwards, the substance-specific cytotoxicity was determined by the water-soluble tetrazolium-1 (4-[3-(4-iodophenyl)-2-(4-nitro-phenyl)-2H-5-tetrazolio]-1,3-benzene sulfonate; WST-1) assay as previously described. The cell viability was determined by microplate reader at 450 nm (Tecan Sunrise, Crailsheim, Germany). The data of three independent experiments (N = 3) were tested for normality with the Shapiro-Wilk test. The significant differences compared to solvent control were analyzed by one-way ANOVA with the Holm-Šidák post hoc test using SigmaPlot 14.5 (Systec Software, San Jose, CA, USA). The data were normalized against the vehicle control (0.1% DMSO) and were expressed as mean ± SEM.
A general note: Formazan colour is commonly taken as a measure of viable cells.

The next data set deals with T1, human ABCG2 transporter (Homo sapiens, UniProt Q9UNQ0).
T1 construct: expressed in transfected cells; host or cells: MDCKII (Madin-Darby canine kidney) cells transfected with human ABCG2
T1 sequence (Q9UNQ0 1-655): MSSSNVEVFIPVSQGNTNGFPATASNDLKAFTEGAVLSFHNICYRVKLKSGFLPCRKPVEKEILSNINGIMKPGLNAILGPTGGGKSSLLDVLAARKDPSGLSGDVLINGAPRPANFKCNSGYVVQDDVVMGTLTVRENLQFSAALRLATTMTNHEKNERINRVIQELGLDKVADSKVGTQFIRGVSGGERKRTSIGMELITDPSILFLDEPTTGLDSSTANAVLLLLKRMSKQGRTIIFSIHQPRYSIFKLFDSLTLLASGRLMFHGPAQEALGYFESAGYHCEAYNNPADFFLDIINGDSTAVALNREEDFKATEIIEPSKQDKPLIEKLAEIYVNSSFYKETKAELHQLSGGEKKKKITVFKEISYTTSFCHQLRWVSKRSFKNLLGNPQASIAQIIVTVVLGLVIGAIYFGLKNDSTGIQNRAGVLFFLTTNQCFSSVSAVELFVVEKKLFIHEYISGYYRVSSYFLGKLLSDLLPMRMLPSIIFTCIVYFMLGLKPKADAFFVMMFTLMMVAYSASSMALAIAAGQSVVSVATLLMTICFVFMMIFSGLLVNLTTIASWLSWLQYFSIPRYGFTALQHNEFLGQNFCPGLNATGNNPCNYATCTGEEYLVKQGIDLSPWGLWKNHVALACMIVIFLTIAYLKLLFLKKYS
Kind of data set: Hoechst 33342 accumulation assay (MDCKII-hABCG2 vs MDCKII-WT). Conditions: for intracellular Hoechst 33342 accumulation / inhibition of ABCG2-mediated Hoechst efflux: 0.5 and 1.0 µM compound, Ko143 1 µM, 4 h, vs solvent control; for inhibition of human ABCG2 transporter in Hoechst 33342 accumulation assay: 0.5 µM. It is filed as cell-based. Here is the method: The Hoechst 33342 accumulation assay was used to detect an interaction of the investigated compounds with the human ABCG2 transporter. The assay protocol was adapted from that published by Wassermann et al.. The MDCKII-hABCG2 (2 × 10^4 cells/mL) and MDCKII-WT (3 × 10^4 cells/mL) cells were seeded in 96-well plates and cultured for 72 h. Afterwards, the sub-confluent monolayers were treated with 0.5 µM and 1.0 µM of the investigational compounds or its respective solvent control (0.1% DMSO) for 4 h. […] After 5 and 20 min, the cells were washed twice with ice-cold PBS buffer solution and lyzed with 100 µL/well 0.1% (v/v) SDS/PBS. The intracellular Hoechst 33342 amount was detected by spectrofluorometry (360 nm excitation/465 nm emission wavelengths, Tecan Infinite F200 Pro, Crailsheim, Germany). The examined fluorescence subtracted by the background of non-treated cells was correlated to the protein amount quantified by the bicinchoninic acid assay (BCA, Thermo Scientific, Rockford, IL, USA) following the manufacturer’s instructions. Relative fluorescence units (RFU) were calculated as the relation of fluorescence/mg protein of MDCKII-hABCG2 cells to MDCKII-WT cells, normalized to the solvent control set as 1 and expressed as mean ± SEM. The data from the Hoechst 3342 accumulation assay (five independent experiments N = 5) were tested for normality with the Shapiro-Wilk test. Significant differences compared to the solvent control were analyzed by one-way ANOVA with the Holm-Šidák post hoc test using SigmaPlot 14.5 (Systec Software, San Jose, CA, USA). An inhibition of human ABCG2 efflux transport activity is defined as the significant difference to the solvent control (0.1% DMSO).

A further data set relates to MDCKII-WT cells. The data set is described as follows: WST-1 cell proliferation assay (cytotoxicity), MDCKII-WT. In kind it is cell-based, canine. Conditions: WST-1, 48 h; for IC50: IC50 = 50% reduced cell viability, mean ± SEM, N = 3. Here is the method:
as §1, §2

The test system of data set [2] is MDCKII-hABCG2 cells. Kind of data set: Reversal of ABCG2-mediated mitoxantrone resistance (WST-1). It is filed as cell-based, canine. The note with it: for Left-Shift Factor: MDCKII-hABCG2, MXN + 1 µM compound, (IC50 minus SEM of MXN alone) by (IC50 plus SEM of combination). Here is the method: Afterwards, the WST-1 assay was performed as described. […] All data were normalized against the vehicle control and were expressed as mean ± SEM, calculated from at least three independent experiments.

In general, IC50 refers to the concentration that gives 50% inhibition. Regarding “N-(closo-1,7-dicarbadodecaboran(12)-9-yl)-2-(3,4,5-trimethoxyphenyl)-quinazolin-4-amine [QCd]”, the IC50 in the data set with MDCKII-hABCG2 cells [1] and with MDCKII-WT cells was greater than 50 µM throughout. The “intracellular Hoechst 33342 accumulation / inhibition of ABCG2-mediated Hoechst efflux” value at human ABCG2 transporter is listed as “did not affect the human ABCG2-mediated Hoechst efflux”.
“N-(closo-1,7-dicarbadodecaboran(12)-9-yl)-2-(3,4-dimethoxyphenyl)-quinazolin-4-amine [QCc]”: the decreased cell viability entry in the data set with MDCKII-hABCG2 cells [1] (MDCKII-hABCG2, WST-1, 48 h, up to 50 µM) is reported as “about 40%”. In addition, the IC50 in the data set on MDCKII-hABCG2 cells [1] and in the data set with MDCKII-WT cells was greater than 50 µM throughout. The “inhibition of human ABCG2 transporter in Hoechst 33342 accumulation assay” value against human ABCG2 transporter is “inhibited the human ABCG2 transporter”. Further, at human ABCG2 transporter, the “intracellular Hoechst 33342 accumulation / inhibition of ABCG2-mediated Hoechst efflux” value is “the only compound exhibiting inhibition within the tested concentration range”. For the same substance, in the data set with MDCKII-hABCG2 cells [2] (MDCKII-hABCG2, 1 µM compound with MXN), the “reversal of MXN resistance” value is on record as “able to reverse MXN resistance”. Moreover, in the data set with MDCKII-hABCG2 cells [2], the “Left-Shift Factor” value is 5.4-fold.
Broadly, the cell viability is a read-out of living cells in per cent, often relative to untreated cells. High values mean less harm to the cells, low ones more harm to the cells. In the data set with MDCKII-hABCG2 cells [1], “N-(closo-1,7-dicarbadodecaboran(12)-9-yl)-2-(4-methoxyphenyl)-quinazolin-4-amine [QCb]” showed a cell viability of 30% and an IC50 greater than 10 µM. Also, the “intracellular Hoechst 33342 accumulation / inhibition of ABCG2-mediated Hoechst efflux” value on human ABCG2 transporter is “did not affect the human ABCG2-mediated Hoechst efflux”. The IC50 in the data set on MDCKII-WT cells amounted to 44.17 ± 0.174 µM.
In the same order, the values of “N-(closo-1,7-dicarbadodecaboran(12)-9-yl)-2-phenylquinazolin-4-amine [QCa]” are 30%, greater than 10 µM, “did not affect the human ABCG2-mediated Hoechst efflux” and 43.23 ± 0.159 µM.
In the data set with MDCKII-hABCG2 cells [1], “N-(closo-1,7-dicarbadodecaboran(12)-9-yl)-6,7-dimethoxy-2-(3,4,5-trimethoxyphenyl)-quinazolin-4-amine [DMQCd]” returned an IC50 greater than 50 µM. In addition, on human ABCG2 transporter, the “inhibition of human ABCG2 transporter in Hoechst 33342 accumulation assay” value is reported as “inhibited the human ABCG2 transporter” and the “intracellular Hoechst 33342 accumulation / inhibition of ABCG2-mediated Hoechst efflux” value was “strongest inhibition at 0.5 µM with a comparable level as the reference Ko143”. This substance came in with an IC50 in the data set on MDCKII-WT cells greater than 50 µM.
With “N-(closo-1,7-dicarbadodecaboran(12)-9-yl)-6,7-dimethoxy-2-(3,4-dimethoxy-phenyl)-quinazolin-4-amine [DMQCc]”, the IC50 in the data set with MDCKII-hABCG2 cells [1] and in the data set on MDCKII-WT cells was greater than 50 µM in each case. In addition, the “intracellular Hoechst 33342 accumulation / inhibition of ABCG2-mediated Hoechst efflux” value on human ABCG2 transporter is given as “only marginal increases in Hoechst 33342 accumulation; also recorded: no significant inhibition”. In the data set on MDCKII-hABCG2 cells [2], the “Left-Shift Factor” value is given as 9.8-fold.
Regarding “N-(closo-1,7-dicarbadodecaboran(12)-9-yl)-6,7-dimethoxy-2-(4-methoxy-phenyl)quinazolin-4-amine [DMQCb]”, the IC50 in the data set with MDCKII-hABCG2 cells [1] and in the data set with MDCKII-WT cells was greater than 25 µM in each case. For the same substance, the “intracellular Hoechst 33342 accumulation / inhibition of ABCG2-mediated Hoechst efflux” value at human ABCG2 transporter is reported as “only marginal increases in Hoechst 33342 accumulation; also recorded: no significant inhibition”. For the same substance, in the data set on MDCKII-hABCG2 cells [2], the “Left-Shift Factor” value is 7.2-fold. This substance yielded a decreased cell viability in the data set on MDCKII-WT cells (MDCKII-WT) of roughly 30%.
In the case of “N-(closo-1,7-dicarbadodecaboran(12)-9-yl)-6,7-dimethoxy-2-phenyl-quinazolin-4-amine [DMQCa]”, the IC50 in the data set with MDCKII-hABCG2 cells [1] and in the data set on MDCKII-WT cells was greater than 50 µM in each case. Further, at human ABCG2 transporter, the “intracellular Hoechst 33342 accumulation / inhibition of ABCG2-mediated Hoechst efflux” value was “improved inhibitory potency at 1.0 µM”. Further, the “Left-Shift Factor” value in the data set on MDCKII-hABCG2 cells [2] is listed as 4.3-fold.

Source of the values: article PMC9866861, “The More the Better—Investigation of Polymethoxylated N-Carboranyl Quinazolines as Novel Hybrid Breast Cancer Resistance Protein Inhibitors” (Pharmaceutics, 2023).
